Test results reported in patent US9650399B2, “Salicylic acid derivatives, pharmaceutically acceptable salt thereof, composition thereof and method of use thereof” (The Governing Council of the University of Toronto, priority 2012, dated 2017).
pEC50: −log10 of the molar value.

Columns and labels:
[1] = test system: multiple myeloma tumor cell lines; test: MTT cytotoxicity in multiple myeloma cell lines; type: cell-based; details: 12 of 15 multiple myeloma cell lines, read-out: ED50 (the source's name)
Procedure: For assessing MM cell viability, HMCL cells were seeded in 96-well plates in triplicate at a density of 20,000 cells/well and incubated with increasing concentrations of 16i and 21h or DMSO control and cell viability assessed by MTT (3-(4,5-dimethylthiazol)-2,5-diphenyl tetrazolium) colorimetric analysis. Results are reported at FIG. 12.

[2] = blood brain barrier permeability: plasma and brain concentrations by LC-MS; type: in vivo, mice; details: for concentration at 30 min: mouse, plasma, intraperitoneal
Procedure: Compounds 31 and 32 were given to three mice at 10 mg/kg BID via IP for five days and blood was collected at two time points (30 min. and 300 min.) for all mice. Plasma was separated from blood by centrifugation and stored at −20° C. until analysis. Brain was also collected from one mouse at each dose. Concentrations of compounds were determined using LC-MS.

[3] = test system: ErbB2 mammary breast tumour cell lines (NIC); test: CyQuant proliferation assay in ErbB2 mammary tumour cell lines; type: cell-based
Procedure: Compounds were assessed for inhibition of cell proliferation in ErbB2 mammary breast tumour cell lines (NIC) containing the activated form of ErbB2 using a CyQuant Assay. […] Three individual Mouse Mammary Tumour Virus ErbB2 mammary tumour cell lines (NIC) were resuspended in 10% FBS plus single quots DMEM media to a final concentration of 40,000 cells per 1 mL. Cells were plated at a concentration of 4,000 cells in 100 μL of media per well on 96 well NUNC plates and incubated for 24 h hours at 37° C. plus 5% CO2. […] Each condition was repeated in quadruplicate. At predetermined time points; at treatment, 24 h, 48 h and 72 h post treatment, the media was removed from the cells and the plates were stored at −80° C. wrapped in tin foil. When needed, all the plates were thawed to room temperature. Invitrogen's CyQuant Cell Proliferation Assay kit was used to measure DNA content. Following their directions, the cell lysis buffer was diluted 1:20 with water and then the CyQuant GR solution 1:400 in the lysis buffer. […] The plates were then incubated for 2-5 minutes protected from light, then read on a fluorescence microplate reader with filters for 480 nm excitation and 520 nm emission maxima. Quadruplicates were averaged and the error bars represent the S.E.M. In some cases the absorbance was normalized to the DMSO control.

[4] = test system: 21 biologically important G protein-coupled receptors (GPCRs); test: PathHunter β-arrestin GPCR screen; type: cell-based; details: 500 nM
Description: To more comprehensively investigate potential off-target effects, 31 was subjected to a kinome screen (101 diverse kinases, DISCOVERX™ KINOMEscan) as well as a protein and receptor screen (21 biologically important G protein-coupled receptors (GPCRs)). […] Ultra-sensitive quantitative PCR (qPCR) was used to measure levels of immobilized kinases after treatment with compound 31. The immobilized kinase levels were compared to control samples and hits were designated when the quantity of the seized kinase fell below a 35% threshold. […] The GPCRs are widely regarded as a most important family of membrane receptors, due to their master regulatory role in intracellular signal transduction. As a result, GPCRs are among the most heavily investigated drug targets in the pharmaceutical industry. […] Lack of off-target kinase activity is illustrated in the TreeSpot dendrogram (FIG. 3).

CN(CC(=O)N(Cc1ccc(C2CCCCC2)cc1)c1ccc(C(=O)O)cc1)S(=O)(=O)c1c(F)c(F)c(F)c(F)c1F [Compound 31, 4-(N-(4-cyclohexylbenzyl)-2-(2,3,4,5,6-pentafluoro-N-methylphenylsulfonamido)acetamido)benzoic acid]
pEC50 [1]: 5.22 to 5.70 | change of plasma concentration between 30 min. and 300 min ([2]; 10 mg/kg BID IP): did not change significantly | concentration in the brain ([2]; 10 mg/kg dosing (FIG. 18)): up to 300 nM | concentration in the brain ([2]; 10 mg/kg dosing, IP BID): about 0.3 μM | compound in plasma after 5 hr ([2]; both doses (10 and 25 mg/kg)): no compound was detected | concentration in the brain ([2]; dosing 10 mg/kg and 25 mg/kg, LCMS (FIG. 17)): up to 0.7 μM | concentration at 30 min ([2]; 10 mg/kg): 240 nM | concentration at 30 min ([2]; 25 mg/kg): 580 nM | cell proliferation in 2071 NIC cells ([3]; 5 μM, CyQuant): completely inhibiting cell proliferation | potency in comparison with BP1-102 ([3]; NIC cell lines 2071, 8518 and 9822): more potent

CN(CC(=O)N(Cc1ccc(C2CCCCC2)cc1)c1ccc(C(=O)NO)cc1)S(=O)(=O)c1c(F)c(F)c(F)c(F)c1F [Compound 32, 4-(N-(4-cyclohexylbenzyl)-2-(2,3,4,5,6-pentafluoro-N-methylphenylsulfonamido)acetamido)-N-hydroxybenzamide]
off-target activity against GPCRs [4]: no off-target activity
